According to US20210341448A1, “SCREENING METHOD FOR THERAPEUTIC DRUG OR PROPHYLACTIC DRUG FOR TAUOPATHY AND DIAGNOSTIC METHOD FOR TAUOPATHY” (National Center for Geriatrics and Gerontology, priority 2018, published 2021):

Assays:
[1] = tested on: brain slice specimen (hippocampus/entorhinal cortex complex); experiment: Measurement of synapse transmission efficiency (fiber-volley/fEPSP) in brain slice specimens; details: aging mouse brain slice exposed to 10 μg/ml for 2 to 3 hours, vs aCSF negative control; p<0.0001
Method: Brain slice specimens from mice were prepared by the following procedure to evaluate impacts by the tau oligomer on synapse transmission efficiency. 20- to 23-month-old C57BL/6 mice (C57BL/6J or C57BL/6N, male) were cervically dislocated and decapitated to isolate the brain. The obtained brain was thoroughly cooled in aCSF (124 mM of NaCl, 3 mM of KCl, 26 mM of NaHCO3, 1.25 mM of NaH2PO4, 2 mM of CaCl2, 1 mM of MgSO4, 10 mM of D-glucose) bubbled with a 95% O2/5% CO2 mixed gas, then dissected at the center of the cerebrum along the coronal plane, and further the dissected posterior site of the brain was sliced along the horizontal cross sections to a thickness of 350 μm using a vibratome (Leica, VT-1200S). […]
The brain slice specimen was moved to a measurement chamber through which aCSF was perfused, and electric pulse stimulation of 1.5, 2, 3, or 4 nA was applied to record induced potential changes for the measurement of synapse strength from […]. […] The recorded waveform was analyzed using a self-made analysis software to calculate an amplitude of fiber-volley and an amplitude of excitatory postsynaptic potential (fEPSP) at each electric pulse stimulation.

[2] = biological target: T1, NMDAR (Mus musculus, UniProt P35436+P35438+Q01097); experiment: Coimmunoprecipitation of tau and NMDAR with anti-tau antibody (TauC); type: binding; details: tau knockout brain slice exposed to tau oligomer sample, IP: TauC, western blot anti-NR1
T1 construct: from tissue
Method: Whether or not the tau oligomers directly bind and interact with NMDARs was tested by the coimmunoprecipitation. The tau-knockout-brain slice specimens exposed to the tau oligomer sample prepared by the procedure of the above (2-1) and (2-2) was homogenized in 50-fold volume of the lysis buffer (4 mM of HEPES, 2 mM of EGTA, 0.32 M of sucrose, 1% Protease Inhibitor Cocktail, 1% Phosphatase Inhibitor Cocktail (Nacalai Tesque Inc., #07575-51)) and was centrifuged at 4° C., 12,000×g for 15 minutes to thereby collect pellets. The obtained pellets were dissolved in a 0.1% Triton X-100/TBS solution (25 mM of Tris-HCl, 150 mM of NaCl, 1 mM of EDTA, 1% NP-40, 5% glycerol, 0.1% Triton X-100, pH 7.4) and the resultant was used as a membrane protein solution. Coimmunoprecipitation on the obtained membrane protein solution was carried out by using an anti-tau antibody (TauC) (Dako, #A0024) (1:2000 dilution) and Pierce Direct Magnetic IP/Co-IP Kit (Thermo Fisher Scientific, #88828), in accordance with the recommended protocol by the kit. The collected coimmunoprecipitation samples were electrophoresed and then NMDAR was detected by the western blot. The antibody used was an anti-NR1 subunit antibody (Merck Millipore, #MAN363) (1:2000 dilution).

[3] = tested on: membrane protein (NMDAR); experiment: Membrane protein-based sandwich ELISA; type: binding, mouse
Method: Pellets of the membrane protein obtained from tau knockout brain by the procedure of the above (7-1) were dissolved in 2% cholic acid or 1% deoxycholate/buffer (50 mM of HEPES, 150 mM of NaCl, pH 7.4), and the solution was centrifuged at 4° C., 150,000×g for 30 minutes to thereby collect the supernatant to use as a membrane protein solution. The obtained membrane protein solution was applied to an ELISA plate (Sumitomo Bakelite Co., Ltd., MS-8596F) and incubated at 4° C. for 60 minutes to thereby coat the plate with the membrane protein. After washing with wash solution (0.004 to 0.008% MNG-3, 50 mM of HEPES, pH 7.4), blocking was done by adding 1% FBS-containing wash solution and incubating at 4° C. for 60 minutes. The solvent of the HT-tau oligomer sample prepared in the above (1-4) was replaced with the wash solution using a protein concentrator (10K MWCO, Pierce, 88526) to thereby prepare a tau oligomer solution of 10^−16 to 10^−6 g/ml. These solutions were applied to the plate and incubated at 4° C. for 15 to 60 minutes. Then, the plate was washed thoroughly with the wash solution and a 5% skim milk-containing wash solution was added, followed by incubating at room temperature for 30 minutes to thereby block the protein. After washing using the wash solution, an anti-HaloTag antibody/wash solution (1:1000 dilution) was added and incubated at room temperature for 30 minutes. Subsequently, the plate was washed with the wash solution, an HRP-labelled secondary antibody/wash solution (Invitrogen, A27036) (1:5000 dilution) was added and incubated at room temperature for 30 minutes. Then, chromogenic reactions were carried out using an Ultra TMB solution (Thermo Fisher Scientific, 34028) to detect the tau oligomers bound to the membrane protein.

T1 sequence (P35436 23-1464, other chains not shown): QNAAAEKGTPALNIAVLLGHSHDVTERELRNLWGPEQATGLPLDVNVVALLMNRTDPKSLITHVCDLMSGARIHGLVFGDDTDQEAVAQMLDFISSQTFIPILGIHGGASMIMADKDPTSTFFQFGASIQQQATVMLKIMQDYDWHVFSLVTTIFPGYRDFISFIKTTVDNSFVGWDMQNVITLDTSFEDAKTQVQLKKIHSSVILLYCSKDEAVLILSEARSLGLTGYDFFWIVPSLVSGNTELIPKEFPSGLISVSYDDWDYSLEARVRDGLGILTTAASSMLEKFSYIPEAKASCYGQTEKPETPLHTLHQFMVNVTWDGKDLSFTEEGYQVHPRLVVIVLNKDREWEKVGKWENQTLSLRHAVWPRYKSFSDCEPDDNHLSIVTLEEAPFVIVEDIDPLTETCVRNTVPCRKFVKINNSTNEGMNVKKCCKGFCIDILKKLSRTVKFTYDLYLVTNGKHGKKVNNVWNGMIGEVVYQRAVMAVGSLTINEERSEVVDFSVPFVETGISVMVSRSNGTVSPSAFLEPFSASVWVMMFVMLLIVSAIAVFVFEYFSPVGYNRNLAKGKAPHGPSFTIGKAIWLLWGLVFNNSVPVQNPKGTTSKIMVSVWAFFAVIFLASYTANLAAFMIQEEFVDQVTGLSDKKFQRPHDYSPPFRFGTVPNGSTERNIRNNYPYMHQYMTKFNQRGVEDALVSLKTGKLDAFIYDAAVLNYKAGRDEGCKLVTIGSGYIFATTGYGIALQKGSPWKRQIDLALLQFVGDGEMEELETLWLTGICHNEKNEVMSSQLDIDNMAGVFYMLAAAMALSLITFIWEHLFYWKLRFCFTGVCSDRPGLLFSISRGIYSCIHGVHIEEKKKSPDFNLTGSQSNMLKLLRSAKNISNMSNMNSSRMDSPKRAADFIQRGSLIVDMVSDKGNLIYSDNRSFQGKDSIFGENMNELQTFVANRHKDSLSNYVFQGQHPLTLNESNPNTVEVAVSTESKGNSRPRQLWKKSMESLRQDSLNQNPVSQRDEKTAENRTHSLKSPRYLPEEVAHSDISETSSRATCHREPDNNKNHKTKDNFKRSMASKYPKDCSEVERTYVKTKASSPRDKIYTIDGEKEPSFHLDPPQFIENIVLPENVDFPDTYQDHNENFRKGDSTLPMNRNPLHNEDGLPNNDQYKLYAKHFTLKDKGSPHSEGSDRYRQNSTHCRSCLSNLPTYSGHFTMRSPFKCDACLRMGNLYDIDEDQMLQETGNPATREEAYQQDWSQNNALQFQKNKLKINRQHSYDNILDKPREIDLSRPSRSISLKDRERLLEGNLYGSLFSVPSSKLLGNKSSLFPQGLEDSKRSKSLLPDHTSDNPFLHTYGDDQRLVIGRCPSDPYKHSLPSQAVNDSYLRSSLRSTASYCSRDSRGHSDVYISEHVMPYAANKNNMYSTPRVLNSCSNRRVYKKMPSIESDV
T1 sequence (Q01097 27-1482, other chains not shown): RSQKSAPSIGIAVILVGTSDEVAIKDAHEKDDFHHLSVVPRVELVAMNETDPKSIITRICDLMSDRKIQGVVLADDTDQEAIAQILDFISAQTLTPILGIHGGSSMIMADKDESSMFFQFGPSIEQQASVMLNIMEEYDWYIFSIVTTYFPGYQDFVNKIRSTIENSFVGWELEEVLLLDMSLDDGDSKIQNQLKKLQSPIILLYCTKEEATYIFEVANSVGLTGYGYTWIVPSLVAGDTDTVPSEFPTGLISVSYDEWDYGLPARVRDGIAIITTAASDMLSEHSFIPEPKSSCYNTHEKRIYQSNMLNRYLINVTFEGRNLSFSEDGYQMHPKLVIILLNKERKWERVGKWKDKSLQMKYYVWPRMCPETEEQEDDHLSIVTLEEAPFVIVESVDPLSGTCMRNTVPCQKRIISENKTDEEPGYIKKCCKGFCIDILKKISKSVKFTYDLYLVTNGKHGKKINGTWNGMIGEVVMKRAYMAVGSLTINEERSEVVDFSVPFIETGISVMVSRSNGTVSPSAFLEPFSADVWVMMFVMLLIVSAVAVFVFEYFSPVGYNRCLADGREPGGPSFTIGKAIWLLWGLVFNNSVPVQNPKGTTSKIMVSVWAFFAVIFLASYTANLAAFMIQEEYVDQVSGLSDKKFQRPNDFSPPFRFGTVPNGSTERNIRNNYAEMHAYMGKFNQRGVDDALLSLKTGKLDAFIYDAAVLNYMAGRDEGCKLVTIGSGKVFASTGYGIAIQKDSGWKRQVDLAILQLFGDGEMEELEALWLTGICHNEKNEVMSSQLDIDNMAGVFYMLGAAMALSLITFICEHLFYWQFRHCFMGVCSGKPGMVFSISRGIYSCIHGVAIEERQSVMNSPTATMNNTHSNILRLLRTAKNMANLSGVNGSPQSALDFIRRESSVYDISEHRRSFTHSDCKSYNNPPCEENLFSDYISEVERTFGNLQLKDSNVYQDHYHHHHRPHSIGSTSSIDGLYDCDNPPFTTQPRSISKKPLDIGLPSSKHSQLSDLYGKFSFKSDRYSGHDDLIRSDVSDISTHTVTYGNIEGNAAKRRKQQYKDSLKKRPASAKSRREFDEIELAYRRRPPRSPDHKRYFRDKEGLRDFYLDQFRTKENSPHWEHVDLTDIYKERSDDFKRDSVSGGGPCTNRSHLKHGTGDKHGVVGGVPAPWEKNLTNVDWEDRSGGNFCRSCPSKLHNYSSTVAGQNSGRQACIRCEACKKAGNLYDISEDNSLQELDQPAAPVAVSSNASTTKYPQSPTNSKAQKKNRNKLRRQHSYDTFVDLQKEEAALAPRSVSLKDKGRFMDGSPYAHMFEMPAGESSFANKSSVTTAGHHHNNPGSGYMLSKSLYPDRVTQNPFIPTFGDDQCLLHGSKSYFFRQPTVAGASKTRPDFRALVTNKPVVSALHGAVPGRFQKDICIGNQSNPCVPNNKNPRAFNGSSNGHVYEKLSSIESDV

With “tau oligomer: polymer of human tau 2N4R monomers, polymerized with mouse brain extract and ATP, collected as pellets” the “synapse transmission efficiency (fiber-volley/fEPSP ratio)” value [1] was “significantly reduced”, the “coimmunoprecipitation of NR1 subunit with tau” value [2] was “clear band of the NR1 subunits was detected” and the “amount of tau oligomer bound to membrane protein” value ([3]; tau oligomer solution of 10^−8 g/ml or higher) was “increased in a concentration-dependent manner”. For the same substance, the “binding of the tau oligomer to membrane protein” value ([3]; tau oligomer solution of 10^−11 g/ml or lower) was “detected”.
